In one assay the target is T1, Rat FAAH (Rattus norvegicus, UniProt P97612).
T1 construct: expressed in transfected cells
T1 sequence (P97612 1-579): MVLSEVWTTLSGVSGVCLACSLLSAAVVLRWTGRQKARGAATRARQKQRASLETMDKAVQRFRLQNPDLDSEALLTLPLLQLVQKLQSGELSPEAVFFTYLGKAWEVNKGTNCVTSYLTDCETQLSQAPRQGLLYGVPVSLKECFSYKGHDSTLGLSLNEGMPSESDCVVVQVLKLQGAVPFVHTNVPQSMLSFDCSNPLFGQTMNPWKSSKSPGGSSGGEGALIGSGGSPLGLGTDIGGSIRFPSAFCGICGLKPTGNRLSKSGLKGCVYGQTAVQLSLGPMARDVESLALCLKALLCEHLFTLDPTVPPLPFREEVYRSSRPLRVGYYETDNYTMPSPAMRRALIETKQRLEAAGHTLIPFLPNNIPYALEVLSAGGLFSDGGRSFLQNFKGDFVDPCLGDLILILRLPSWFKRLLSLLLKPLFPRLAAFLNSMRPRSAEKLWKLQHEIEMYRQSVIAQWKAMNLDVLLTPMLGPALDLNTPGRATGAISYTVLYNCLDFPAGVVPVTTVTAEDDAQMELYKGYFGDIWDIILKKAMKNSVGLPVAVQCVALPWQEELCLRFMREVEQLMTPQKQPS
Nature of the assay: Assay Method 2: FAAH assay, 3H-anandamide hydrolysis in cell homogenate. The settings on record: average of results obtained, > value = solubility limit or highest concentration tested. The class given is biochemical. Here is the method: A. Transfection of Cells with Rat FAAH
The assay mixture consisted of 50 μL of the cell homogenate, 10 μL of the test compound, and 40 μL of anandamide [1-^3H-ethanolamine] (^3H-AEA, Perkin-Elmer, 10.3 Ci/mmol), which was added last, for a final tracer concentration of 80 nM. The reaction mixture was incubated at rt for 1 h. During the incubation, 96-well Multiscreen filter plates (catalog number MAFCNOB50; Millipore, Bedford, Mass., USA) were loaded with 25 μL of activated charcoal (Multiscreen column loader, catalog number MACL09625, Millipore) and washed once with 100 μL of MeOH. […] After the 1 h incubation, 60 μL of the reaction mixture were transferred to the charcoal plates, which were then assembled on top of the DYNEX plates using Centrifuge Alignment Frames (catalog number MACF09604, Millipore). The unbound labeled ethanolamine was centrifuged through to the bottom plate (5 min at 2000 rpm), which was preloaded with the scintillant, as described above. The plates were sealed and left at rt for 1 h before counting on a Hewlett Packard TopCount.

For the next assay, the target named is T2, FAAH (Homo sapiens, UniProt O00519).
T2 sequence (O00519 1-579): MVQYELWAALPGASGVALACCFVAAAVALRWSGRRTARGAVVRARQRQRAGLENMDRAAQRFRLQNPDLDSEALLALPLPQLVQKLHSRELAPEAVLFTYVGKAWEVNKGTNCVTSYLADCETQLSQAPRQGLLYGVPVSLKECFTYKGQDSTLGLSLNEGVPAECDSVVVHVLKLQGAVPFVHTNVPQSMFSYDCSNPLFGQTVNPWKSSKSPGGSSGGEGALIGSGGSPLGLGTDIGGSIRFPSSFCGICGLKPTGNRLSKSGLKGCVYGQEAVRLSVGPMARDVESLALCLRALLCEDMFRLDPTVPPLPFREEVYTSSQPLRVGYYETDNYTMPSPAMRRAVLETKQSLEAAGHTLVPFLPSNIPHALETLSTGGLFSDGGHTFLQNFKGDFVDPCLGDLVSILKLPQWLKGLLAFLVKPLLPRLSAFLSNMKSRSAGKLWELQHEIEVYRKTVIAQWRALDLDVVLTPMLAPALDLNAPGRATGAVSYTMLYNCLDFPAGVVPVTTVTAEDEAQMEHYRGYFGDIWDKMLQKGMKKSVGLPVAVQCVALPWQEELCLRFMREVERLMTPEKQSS
The assay is described as follows: Assay Method 1: FAAH assay, 3H-anandamide hydrolysis in cell homogenate.

A value given as a limit tells only on which side of the number the result lay.

For `O=C(Nc1noc2ncccc12)N1CCN(Cc2cccc(Oc3cccc(Br)c3)c2)CC1` [Example 35, 4-[3-(3-Bromo-phenoxy)-benzyl]-piperazine-1-carboxylic acid isoxazolo[5,4-b]pyridin-3-ylamide], the IC50 at Rat FAAH was determined as 300 nM; at FAAH, 150 nM.

Regarding `O=C(Nc1noc2ncccc12)N1CCN(Cc2cccc(Oc3cccc(OC(F)(F)F)c3)c2)CC1` [Example 36, 4-[3-(3-Trifluoromethoxy-phenoxy)-benzyl]-piperazine-1-carboxylic acid isoxazolo[5,4-b]pyridin-3-ylamide], the 50% inhibitory concentration (IC50) on Rat FAAH was determined as 6000 nM; against FAAH it was 1400 nM.

Take `O=C(Nc1noc2ncccc12)N1CCN(Cc2cccc(Oc3ccc(OC(F)(F)F)cc3)c2)CC1` [Example 37, 4-[3-(4-Trifluoromethoxy-phenoxy)-benzyl]-piperazine-1-carboxylic acid isoxazolo[5,4-b]pyridin-3-ylamide]: the half-maximal inhibitory concentration (IC50) worked out at 100 nM at Rat FAAH and 200 nM against FAAH.

For the compound `O=C(Nc1noc2cnccc12)N1CCN(Cc2ccc3c(c2)OC(F)(F)O3)CC1` [Example 39, 4-(2,2-Difluoro-benzo[1,3]dioxol-5-ylmethyl)-piperazine-1-carboxylic acid isoxazolo[5,4-c]pyridin-3-ylamide], the IC50 against Rat FAAH was determined as 11 nM; at FAAH, 6 nM.

Consider `O=C(Nc1noc2cccnc12)N1CCN(Cc2ccc3c(c2)OC(F)(F)O3)CC1` [Example 42, 4-(2,2-Difluoro-benzo[1,3]dioxol-5-ylmethyl)-piperazine-1-carboxylic acid isoxazolo[4,5-b]pyridin-3-ylamide], for which the IC50 against Rat FAAH amounted to 220 nM; at FAAH, 2000 nM.

For the compound `O=C(Nc1noc2cccnc12)N1CCN(Cc2ccc(Cl)c(Cl)c2)CC1` [Example 43, 4-(3,4-Dichloro-benzyl)-piperazine-1-carboxylic acid isoxazolo[4,5-b]pyridin-3-ylamide], the half-maximal inhibitory concentration (IC50) was found to be 112 nM against Rat FAAH and 250 nM against FAAH.

As to `O=C(Nc1cnc2[nH]ccc2c1)N1CCN(Cc2ccc3c(c2)OC(F)(F)O3)CC1` [Example 44, 4-(2,2-Difluoro-benzo[1,3]dioxol-5-ylmethyl)-piperazine-1-carboxylic acid (1H-pyrrolo[2,3-b]pyridin-5-yl)-amide], the IC50 stood at 9 nM at Rat FAAH and 16 nM on FAAH.

Take `O=C(Nc1cnc2cc[nH]c2c1)N1CCN(Cc2ccc3c(c2)OC(F)(F)O3)CC1` [Example 45, 4-(2,2-Difluoro-benzo[1,3]dioxol-5-ylmethyl)-piperazine-1-carboxylic acid (1H-pyrrolo[3,2-b]pyridin-6-yl)-amide]: the IC50 against Rat FAAH and at FAAH was 230 nM throughout.

Consider `O=C(Nc1ccc2ncoc2c1)N1CCN(Cc2cccc(Oc3ccc(Cl)cc3)c2)CC1` [Example 46, 4-[3-(4-Chloro-phenoxy)-benzyl]-piperazine-1-carboxylic acid benzooxazol-6-ylamide], for which the figures for the IC50 on Rat FAAH and against FAAH were 7000 nM and 27 nM, respectively.

`O=C(Nc1ccc2ncoc2c1)N1CCN(Cc2ccc3c(c2)OC(F)(F)O3)CC1` [Example 47, 4-(2,2-Difluoro-benzo[1,3]dioxol-5-ylmethyl)-piperazine-1-carboxylic acid benzooxazol-6-ylamide]: the IC50 stood at 3000 nM on Rat FAAH and 2000 nM against FAAH.

For the compound `O=C(Nc1ccc2nccn2c1)N1CCN(Cc2ccc3c(c2)OC(F)(F)O3)CC1` [Example 51, 4-(2,2-Difluoro-benzo[1,3]dioxol-5-ylmethyl)-piperazine-1-carboxylic acid imidazo[1,2-a]pyridin-6-ylamide], the IC50 against Rat FAAH and at FAAH was over 10000 nM in each case.

In the case of `O=C(Nc1cccn2ccnc12)N1CCN(Cc2ccc(OC(F)(F)F)c(Cl)c2)CC1` [Example 53, 4-(3-Chloro-4-trifluoromethoxy-benzyl)-piperazine-1-carboxylic acid imidazo[1,2-a]pyridin-8-ylamide], the values for the concentration for half-maximal inhibition (IC50) against Rat FAAH and on FAAH were 120 nM and 1300 nM, respectively.

For the compound `O=C(Nc1cccn2ccnc12)N1CCN(Cc2ccc3c(c2)OC(F)(F)O3)CC1` [Example 54, 4-(2,2-Difluoro-benzo[1,3]dioxol-5-ylmethyl)-piperazine-1-carboxylic acid imidazo[1,2-a]pyridin-8-ylamide], the half-maximal inhibitory concentration (IC50) worked out at 350 nM against Rat FAAH and 6000 nM against FAAH.

On to `O=C(Nc1cn2ccccc2n1)N1CCN(Cc2cccc(Oc3ccc(Cl)cc3)c2)CC1` [Example 55, 4-[3-(4-Chloro-phenoxy)-benzyl]-piperazine-1-carboxylic acid imidazo[1,2-a]pyridin-2-ylamide], for which the IC50 against Rat FAAH and on FAAH was over 10000 nM throughout.

As for `O=C(Nc1cn2ccccc2n1)N1CCN(Cc2ccc(OC(F)(F)F)c(Cl)c2)CC1` [Example 56, 4-(3-Chloro-4-trifluoromethoxy-benzyl)-piperazine-1-carboxylic acid imidazo[1,2-a]pyridin-2-ylamide], the 50% inhibitory concentration (IC50) against Rat FAAH and against FAAH was over 10000 nM each time.

`O=C(NC1=NS(=O)(=O)c2ccccc21)N1CCN(Cc2cccc(Oc3ccc(Cl)cc3)c2)CC1` [Example 59, 4-[3-(4-Chloro-phenoxy)-benzyl]-piperazine-1-carboxylic acid (1,1-dioxo-1H-λ^6-benzo[d]isothiazol-3-yl)-amide]: the half-inhibitory concentration (IC50) on Rat FAAH and against FAAH was 2000 nM throughout.

As to `O=C(Nc1ccnc2[nH]ccc12)N1CCN(Cc2cccc(Oc3ccc(Cl)cc3)c2)CC1` [Example 61, 4-[3-(4-Chloro-phenoxy)-benzyl]-piperazine-1-carboxylic acid (1H-pyrrolo[2,3-b]pyridin-4-yl)-amide], the IC50 is 6000 nM on Rat FAAH and 1000 nM against FAAH.

For `CC(C)n1ncc2cc(NC(=O)N3CCN(Cc4cccc(Oc5ccc(Cl)cc5)c4)CC3)cnc21` [Example 62, 4-[3-(4-Chloro-phenoxy)-benzyl]-piperazine-1-carboxylic acid (1-isopropyl-1H-pyrazolo[3,4-b]pyridin-5-yl)-amide], the IC50 against Rat FAAH turned out to be 4000 nM; on FAAH, 220 nM.

On to `Cc1nn(C)c2ncc(NC(=O)N3CCN(Cc4cccc(Oc5ccc(Cl)cc5)c4)CC3)cc12` [Example 64, 4-[3-(4-Chloro-phenoxy)-benzyl]-piperazine-1-carboxylic acid (1,3-dimethyl-1H-pyrazolo[3,4-b]pyridin-5-yl)-amide], for which the IC50 against Rat FAAH worked out at 95 nM; on FAAH, 26 nM.

For `Cn1cc2c(NC(=O)N3CCN(Cc4cccc(Oc5ccc(Cl)cc5)c4)CC3)cccc2n1` [Example 65, 4-[3-(4-Chloro-phenoxy)-benzyl]-piperazine-1-carboxylic acid (2-methyl-2H-indazol-4-yl)-amide], the IC50 was 28 nM against Rat FAAH and 50 nM on FAAH.

`O=C(Nc1nc2ccccc2o1)N1CCN(Cc2ccc(OC(F)(F)F)c(Cl)c2)CC1` [Example 67, 4-(3-Chloro-4-trifluoromethoxy-benzyl)-piperazine-1-carboxylic acid benzooxazol-2-ylamide]: the IC50 on Rat FAAH and against FAAH was over 10000 nM throughout.

On to `O=C(Nc1nc2ccccc2o1)N1CCN(Cc2ccc3c(c2)OC(F)(F)O3)CC1` [Example 68, 4-(2,2-Difluoro-benzo[1,3]dioxol-5-ylmethyl)-piperazine-1-carboxylic acid benzooxazol-2-ylamide], for which the 50% inhibitory concentration (IC50) at Rat FAAH and against FAAH was over 10000 nM in each case.

On to `O=C(Nc1cccc2nccn12)N1CCN(Cc2ccc(OC(F)(F)F)c(Cl)c2)CC1` [Example 70, 4-(3-Chloro-4-trifluoromethoxy-benzyl)-piperazine-1-carboxylic acid imidazo[1,2-a]pyridin-5-ylamide], for which the figures for the half-inhibitory concentration (IC50) on Rat FAAH and against FAAH were 38 nM and 67 nM, respectively.

The term IC50 denotes the midpoint of a concentration-inhibition curve. High values mean a need for much substance, low ones inhibition by little substance.

(Values after patent US8877769B2, “Heteroaryl-substituted urea modulators of fatty acid amide hydrolase” (Janssen Pharmaceutica NV, priority 2008, dated 2014).)
